Experimental data as given in patent publication US7398161B2, “Sampling method and sampling device, and logD measuring method and logD measuring system” (Banyu Pharmaceutical Co., Ltd., priority 2004, dated 2008).

Tests used:
[1] = physchem
[2] = J. Med. Chem. 2001, 44, 2490-2497; cited from earlier work
[3] = logD measurement by sampling of octanol/buffer two-layer sample with plug liquid, HPLC and mass spectrometer; details: octanol/buffer solution

logD [1]	logD [3]	Structure (SMILES)	logD, Literature value [2]	logD, Measured value ([3]; average of three measurements (only one measurement for amiodarone))
0.3		COCCc1ccc(OCC(O)CNC(C)C)cc1 (stereo not drawn) [Metoprolol]		
5.2		c1ccc(-c2ccc(C(c3ccccc3)n3ccnc3)cc2)cc1 (stereo not drawn) [bifonazole]	4.77	
	-1.9	CC(C)(C)NCC(O)c1cc(O)cc(O)c1 (stereo not drawn) [Terbutaline]	−1.35	
1.8		NC(=O)N1c2ccccc2C=Cc2ccccc21 [Carbamazepine]	2.19	
3.5		CN(C)CCCN1c2ccccc2Sc2ccc(Cl)cc21 [Chlorpromazine]		
3.9		C[C@]12CC[C@@H]3c4ccc(O)cc4CC[C@H]3[C@@H]1CC[C@@H]2O [estradiol]		
2.3		COc1ccc([C@@H]2Sc3ccccc3N(CCN(C)C)C(=O)[C@@H]2OC(C)=O)cc1 [Diltiazem]	2.06	
	1.2	C=CCc1ccccc1OCC(O)CNC(C)C (stereo not drawn) [Alprenolol]	0.97	
		C[C@@H]1C[C@H]2[C@@H]3CCC4=CC(=O)C=C[C@]4(C)[C@@]3(F)[C@@H](O)C[C@]2(C)[C@@]1(O)C(=O)CO [Dexamethason]	1.83	1.9
